Laboratory results reported in the supplement of paper PMC8024199.
± gives the standard deviation of the averaged measurements.

How the values were obtained:
Assay in all cases: drug sensitivity score (DSS) (DSS score); higher = more sensitive (stronger growth inhibition); extreme values may be limits of the assay
[1] = test system: Ba/F3 P210-BCR-ABL1 RUNX1-/mut (mouse)
Method in brief: (§1)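 A drug sensitivity score summarised each dose-response curve, with luminescence from CellTiter-Glo scaled between vehicle and positive-control wells. Values are the mean of two replicates. The cells were mouse Ba/F3 clones that were CRISPR/Cas9-edited at a target exon or were edited controls, exposed on pre-printed 384-well plates to a 528-compound library at five concentrations spanning a 10,000-fold range. Plates held 10,000 cells per well in RPMI with 10% FBS for 72 h at 37 °C and 5% CO2.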

[2] = test system: Ba/F3 P210-BCR-ABL1 RUNX1-/- (mouse)
Method in brief: as §1

[3] = test system: Ba/F3 P210-BCR-ABL1 RUNX1wt/wt control (mouse)
Method in brief: as §1

Compound | drug sensitivity score [1] | drug sensitivity score [2] | drug sensitivity score [3]
Nc1nc(N)c2nc(-c3cccc(O)c3)c(-c3cccc(O)c3)nc2n1 [TG100-115] | 4.65 ± 0.49 | 3.1 ± 0.57 | 0
C=CC(=O)N1CCC[C@@H](n2nc(-c3ccc(Oc4ccccc4)cc3)c3c(N)ncnc32)C1 [Ibrutinib] | 0.2 ± 0.28 | 1.5 ± 0.71 | 0.35 ± 0.49
CC[C@@H](C(=O)[C@@H](C)[C@@H](O)[C@H](C)[C@@H]1O[C@@H]([C@@H](CC)C(=O)O)CC[C@@H]1C)[C@H]1O[C@]2(C=C[C@@H](O)[C@]3(CC[C@@](C)([C@H]4CC[C@](O)(CC)[C@H](C)O4)O3)O2)[C@H](C)C[C@@H]1C [Salinomycin] | 17.6 ± 10 | 19.6 ± 7.6 | 17 ± 8.3
Cc1c(C(=O)Nc2ccc(N3C[C@@H](C)O[C@@H](C)C3)nc2)cccc1-c1ccc(OC(F)(F)F)cc1 [Sonidegib] | 1.3 ± 1.8 | 1.3 ± 1.8 | 0.15 ± 0.21
CC[C@@](C)(Nc1ccnc(-c2c[nH]c3ncccc23)n1)C(=O)NCC(F)(F)F [Decernotinib] | 0 | 0.5 ± 0.28 | 0.55 ± 0.21
NC(=O)c1cccc2cn(-c3ccc([C@@H]4CCCNC4)cc3)nc12 [Niraparib] | 8.15 ± 3.3 | 7.8 ± 0.99 | 2.7 ± 0.71
Clc1ccccc1C(c1ccccc1)(c1ccccc1)n1cccn1 [TRAM-34] | 0 | 0 | 0
CCn1c(-c2nonc2N)nc2cnc(Oc3cccc(NC(=O)c4ccc(OCCN5CCOCC5)cc4)c3)cc21 | 4.25 ± 2.3 | 5.55 ± 1.1 | 1.45 ± 0.071
CNC(=O)c1cccc2cc(Oc3ccnc4cc(OCC5(N)CC5)c(OC)cc34)ccc12 [Lucitanib] | 2.95 ± 1.1 | 3.1 ± 1.1 | 0.05 ± 0.071
C=CC(=O)N1CC/C(=C\c2ccc(F)c([N+](=O)[O-])c2)C(=O)/C(=C/c2ccc(F)c([N+](=O)[O-])c2)C1 [VLX1570] | 23.5 ± 4.7 | 23.1 ± 0.78 | 15.8 ± 0.92
CN1CCN(c2ccc(C(=O)Nc3n[nH]c4ccc(Cc5cc(F)cc(F)c5)cc34)c(NC3CCOCC3)c2)CC1 [Entrectinib] | 0.65 ± 0.92 | 0.25 ± 0.35 | 0
Nc1ncnc2c1nc(N)n2[C@@H]1O[C@H](CO)[C@@H](O)[C@H]1O [8-amino-adenosine] | 15.8 ± 2.4 | 19.7 ± 0.42 | 9.4 ± 0.85
O=C(c1cccc(Cl)c1F)N1CCN(Cc2cccc(Nc3nccs3)n2)CC1 [MK-8745] | 3.5 ± 0.99 | 4.7 ± 0.14 | 0.85 ± 0.071
COc1cc2ncnc(Nc3ccc(F)c(Cl)c3)c2cc1NC(=O)/C=C/CN1CCCCC1 [Dacomitinib] | 1.8 ± 2.3 | 1.05 ± 1.5 | 0.25 ± 0.35
CCNC(=O)c1noc(-c2cc(C(C)C)c(O)cc2O)c1-c1ccc(CN2CCOCC2)cc1 [Luminespib] | 28.7 ± 3.2 | 29.4 ± 1.7 | 18.4 ± 0.57
COc1cc(Br)c(Nc2nc(-c3c(C)nc4ncccn34)cs2)c(Br)c1 [PTC-209] | 7.8 ± 2.4 | 9.05 ± 2.6 | 7.5 ± 0.14
Cc1ccc(C(=O)Nc2ccc(CN3CCN(C)CC3)c(C(F)(F)F)c2)cc1C#Cc1cnc2cccnn12 [Ponatinib] | 31.6 ± 0.28 | 36.2 ± 2.4 | 30.2 ± 0.57
CC1=C2C[C@H]3[C@@H](CC[C@@H]4C[C@H](NS(C)(=O)=O)CC[C@@]43C)[C@@H]2CC[C@@]2(C1)O[C@@H]1C[C@H](C)CN[C@H]1[C@H]2C [Saridegib] | 2.15 ± 3 | 2.3 ± 0.28 | 0
N#CCNC(=O)c1ccc(-c2ccnc(Nc3ccc(N4CCOCC4)cc3)n2)cc1 [Momelotinib] | 5.9 ± 1.1 | 8.45 ± 1.1 | 6.15 ± 0.64
COc1cc(N2CCC(N3CCN(C)CC3)CC2)ccc1Nc1ncc(Cl)c(Nc2ccccc2P(C)(C)=O)n1 [Brigatinib] | 2.55 ± 3.6 | 4.95 ± 0.35 | 0.1 ± 0.14
CC[C@]1(O)C[C@H]2CN(CCc3c([nH]c4ccccc34)[C@@](C(=O)OC)(c3cc4c(cc3OC)N(C=O)[C@H]3[C@@](O)(C(=O)OC)[C@H](OC(C)=O)[C@]5(CC)C=CCN6CC[C@]43[C@@H]65)C2)C1 [Vincristine] | 23.1 ± 2.5 | 23.9 ± 4.2 | 13.9 ± 2.3
CNC(=O)c1cc(COc2nnc(Nc3ccc(Cl)cc3)c3ccoc23)ccn1 [Telatinib] | 0 | 0.1 ± 0.14 | 0
COc1cc(OC)c(/C=C/S(=O)(=O)Cc2ccc(OC)c(NCC(=O)O)c2)c(OC)c1 [Rigosertib] | 27.05 ± 0.071 | 26.8 ± 1.1 | 15.6 ± 1.4

Compound | drug sensitivity score [1] | drug sensitivity score [2] | drug sensitivity score [3]
O=C(O)c1ccc(O)c2ncccc12 [IOX-1] | 2.4 ± 2.8 | 2.5 ± 2 | 1.75 ± 0.21
Cc1cc2c(C(=O)NC[C@H](C)c3ccccc3)c(O)c(O)cc2c(O)c1-c1c(C)cc2c(C(=O)NC[C@H](C)c3ccccc3)c(O)c(O)cc2c1O [Sabutoclax] | 23.5 ± 7.5 | 21.8 ± 6.7 | 19.1 ± 0.49
CC[C@H](C)C(=O)O[C@H]1C[C@H](O)C=C2C=C[C@H](C)[C@H](CC[C@@H](O)C[C@@H](O)CC(=O)O)[C@H]21 [Pravastatin] | 0 | 0.1 ± 0.14 | 0.1 ± 0.14
C[C@H]1O[C@@H](O[C@H]2[C@@H](O)C[C@H](O[C@H]3[C@@H](O)C[C@H](O[C@H]4CC[C@@]5(C)[C@H](CC[C@@H]6[C@@H]5C[C@@H](O)[C@]5(C)[C@@H](C7=CC(=O)OC7)CC[C@]65O)C4)O[C@@H]3C)O[C@@H]2C)C[C@H](O)[C@@H]1O [Digoxin] | 0.05 ± 0.071 | 0 | 0
COC(=O)c1ccc2c(c1)[nH]c1ncnc(NCCCN3CCCCC3)c12 [UM729] | 3.5 ± 4.5 | 4.1 ± 1.1 | 0
C[C@@H]1COC(Nc2ccc3ncnc(Nc4ccc(OCc5nccs5)c(Cl)c4)c3c2)=N1 [Varlitinib] | 1.15 ± 1.6 | 1.35 ± 1.9 | 0
CN(C)c1cc2c(cc1Sc1nc3c(N)nccc3n1CCNCC(C)(C)C)OCO2 [CUDC-305] | 16.9 ± 0.21 | 18.3 ± 1.6 | 17.1 ± 0.21
CC(C)Nc1cc(-c2c[nH]c(C(=O)N[C@H](CO)c3cccc(Cl)c3)c2)c(Cl)cn1 [Ulixertinib] | 5.6 ± 0.42 | 7.25 ± 0.071 | 2.45 ± 1.6
CNC(=O)CN1CCC(Oc2cc3c(Nc4cccc(Cl)c4F)ncnc3cc2OC)CC1 [Sapitinib] | 0 | 0.35 ± 0.49 | 0
Cc1c(Cn2c(C)nc3c(C(=O)O)cc(N4CCOCC4)cc32)cccc1C(F)(F)F | 0 | 0 | 0
O[C@H](C[C@H]1c2c(F)cccc2-c2cncn21)[C@H]1CC[C@H](O)CC1 [GDC-0919] | 0.05 ± 0.071 | 0 | 1.2 ± 0.28
Cc1nc(NC(=O)N2CCC[C@H]2C(N)=O)sc1-c1ccnc(C(C)(C)C(F)(F)F)c1 [Alpelisib] | 3 ± 1.8 | 2.5 ± 0.57 | 0.75 ± 1.1
O=C1Cc2cc(C(=O)NC3C[C@H]4CC[C@@H](C3)N4S(=O)(=O)CC3CCN(CCCC(F)(F)F)CC3)c(Cl)cc2N1 (stereo not given in full) | 0.05 ± 0.071 | 0 | 1.35 ± 1.9
O=C(O)CCCCC(CCSCc1ccccc1)SCc1ccccc1 (stereo not given) [CPI-613] | 0 | 0 | 0
C=CC(=O)Nc1cc(Nc2nccc(-c3cn(C)c4ccccc34)n2)c(OC)cc1N(C)CCN(C)C [Osimertinib] | 5.6 ± 0.57 | 5.6 ± 0.28 | 1.25 ± 1.2
CN(C)C(=O)c1cc2cnc(Nc3ccc(N4CCNCC4)cn3)nc2n1C1CCCC1 [Ribociclib] | 1.85 ± 2.5 | 4.6 ± 2.3 | 0
Cc1ccc(F)c(NC(=O)Nc2ccc(-c3cccc4[nH]nc(N)c34)cc2)c1 [Linifanib] | 0.1 ± 0.14 | 1.1 ± 1.6 | 0.1 ± 0.14
CC[C@H](CO)Nc1nc(NCc2ccccc2)c2ncn(C(C)C)c2n1 [Seliciclib] | 0.4 ± 0.57 | 1.3 ± 0.14 | 0
CC(C)[C@@H](CS(=O)(=O)C(C)C)N1C(=O)[C@@](C)(CC(=O)O)C[C@H](c2cccc(Cl)c2)[C@H]1c1ccc(Cl)cc1 [AMG-232] | 11.2 ± 1.6 | 12.7 ± 2.3 | 3.7 ± 0.28
Cc1nc(-c2cn3c(n2)-c2ccc(-c4cnn(C(C)(C)C(N)=O)c4)cc2OCC3)n(C(C)C)n1 [Taselisib] | 3.1 ± 4.1 | 4.65 ± 0.49 | 0.4 ± 0.57
CCNc1nc(Nc2cc(F)c(C(=O)N3CCOCC3)cc2OC)ncc1C(F)(F)F [GNE-7915] | 0 | 0 | 0
Nc1ccccc1NC(=O)c1ccc(CNc2nccc(-c3cccnc3)n2)cc1 [Mocetinostat] | 17.4 ± 2.3 | 17.5 ± 1.6 | 17.1 ± 0.14
